Like-named read-outs stand apart in the source and are kept apart here.
Tests used:
[1] = system: RNAPII and Top1 at transcriptional start sites; format: cell-based; settings: A549, PR8ΔNS1
C57BL/6J mice [2] = assay: LPS-induced septic shock model; format: in vivo, mouse; settings: LPS 10 mg/kg i.p., CPT 30 mg/kg 30 minutes before and one hour after LPS
[3] = system: GM-CSF, IL-1β, IL-6 and TNFα in mouse serum; assay: Serum cytokines 4 hours after LPS injection; format: in vivo; settings: mice
[4] = system: Legionella pneumophila serogroup 1; settings: guinea pig, in vivo
spleen of C57BL/6J mice = settings: LPS+CPT, 90 minutes after LPS
C57BL/6J mice [5] = assay: Cecal ligation puncture (CLP) model; settings: CPT 30 mg/kg i.v. 6 hours and twice at day 2, 60 mg/kg i.p. day 3 post-surgery

Structure (SMILES) | RNAPII at PAMP-induced genes [1] | survival in lethal endotoxic (septic) shock (C57BL/6J mice [2]) | pro-inflammatory genes and cytokine expression (serum titers) [3] | survival rates [4] | time to death relative to the control group [4] | DNA damage (H2AX staining) at the concentration used (A549 cells; A549, 0.5 μM CPT, 100 nM TPT, 6 hours p.i.) | concentration at which DNA damage was detectable, relative to the concentration selected (A549 cells; A549, selected 0.5 μM CPT, 100 nM TPT) | cell death in vivo (Live/Dead dye, spleen) (spleen of C57BL/6J mice) | inflammatory gene transcription in vivo (spleen) (spleen of C57BL/6J mice) | survival following CLP (C57BL/6J mice [5]) | concentration at which DNA damage was detectable, relative to the concentration selected (A549 cells; human)
CC[C@@]1(O)C(=O)OCc2c1cc1n(c2=O)Cc2cc3ccccc3nc2-1 [CPT, Camptothecin] | suppress | rescued animals from lethal endotoxic shock | suppression | improved survival rates | delay of death | neither TPT- nor CPT-treated cells displayed DNA damage | 20 times higher | without inducing cell death | inhibits | improved survival | –
CC[C@@]1(O)C(=O)OCc2c1cc1n(c2=O)Cc2cc3c(CN(C)C)c(O)ccc3nc2-1 [TPT, Topotecan] | suppress | – | – | – | – | – | – | – | – | – | 100 times higher
